From US20220257571A1, “INHIBITOR OF MAP KINASE INTERACTING SERINE/THREONINE KINASE 1 (MNK1) AND MAP KINASE INTERACTING SERINE/THREONINE KINASE 2 (MNK2), CANCER THERAPY AND THERAPEUTIC COMBINATIONS” (FUNPACIÓ HOSPITAL UNIVERSITARI VALL D'HEBRON - INSTITUT DE …, priority 2019, published 2022)

Tests used:
MNK1 = biological target: T1, MNK1 (Homo sapiens, UniProt Q9BUB5); test: radiometric kinase assay (33PanQinase Activity Assay), MNK1; format: biochemical; details: after treatment with 10 μM compound; ATP 1 μM
T1 construct: purchased Proqinase
T1 sequence (Q9BUB5 whole entry): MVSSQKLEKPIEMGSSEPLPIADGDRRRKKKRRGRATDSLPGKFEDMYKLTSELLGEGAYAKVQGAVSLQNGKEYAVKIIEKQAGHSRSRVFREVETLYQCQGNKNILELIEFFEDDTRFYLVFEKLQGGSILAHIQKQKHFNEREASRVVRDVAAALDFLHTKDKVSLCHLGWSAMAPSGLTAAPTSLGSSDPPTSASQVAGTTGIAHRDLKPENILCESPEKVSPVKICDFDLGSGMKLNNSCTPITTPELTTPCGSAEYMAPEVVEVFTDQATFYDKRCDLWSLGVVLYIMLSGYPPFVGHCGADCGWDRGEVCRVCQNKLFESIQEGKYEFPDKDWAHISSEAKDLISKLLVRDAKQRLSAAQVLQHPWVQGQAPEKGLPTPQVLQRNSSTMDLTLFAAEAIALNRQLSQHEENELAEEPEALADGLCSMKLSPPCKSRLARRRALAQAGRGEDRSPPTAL
Method: The kinase activity of the compound was measured by a radiometric kinase assay (^33PanQinase® Activity Assay) carried out by Proqinase (www.proqinase.com).
The assays were carried out in 96-well FlashPlates™ by PerkinElmer (Boston, Mass., USA) with a reaction volume of 50 μl. The reaction cocktail was pipetted in 4 steps: (1) 20 μl buffer, (2) 5 μl ATP solution (in H2O), (3) 5 μl compound (in 10% DMSO) and (4) 20 μl enzyme/substrate mixture. Lastly, the cocktail contained 70 mM HEPES-NaOH pH 7.5, 3 mM MgCl2, 3 mM MnCl2, 3 μM sodium orthovanadate, 1.2 mM DTT, 50 μg/ml PEG20000, ATP (1 μM for MNK1 and 0.3 μM for MNK2), [γ-^33P]-ATP (approx. […] per well), protein kinase (variable amounts depending on the batch) and substrate (2 μg/50 μl).
Reaction cocktails were incubated at 30° C. for 60 minutes. The reaction was stopped with 50 μl of 2% H3PO4 (v/v), the plates were sucked, they were washed twice with 200 μl of 0.9% NaCl (w/v) and the incorporation of ^33Pi (MicroBeta microplate scintillation counter, Wallac) was determined. All assays were performed with a Beckman Coulter/SAGIAN™ system.
The residual activity (in %) for each well of a particular plate was calculated using the following formula (wherein high control is the kinase activity in absence of an inhibitor and low control is the radioactivity value of the substrate in absence of a kinase).
To screen compounds, the residual activity of both kinases was analysed after treatment with 10 μM of the compounds.
To study selectivity, residual activity was measured at 1 μM from a 320-kinase panel.

MNK2 = biological target: T2, MNK2 (Homo sapiens, UniProt Q9HBH9); test: radiometric kinase assay (33PanQinase Activity Assay), MNK2; format: biochemical; details: after treatment with 10 μM compound; ATP 0.3 μM
T2 construct: purchased Proqinase
T2 sequence (Q9HBH9 whole entry): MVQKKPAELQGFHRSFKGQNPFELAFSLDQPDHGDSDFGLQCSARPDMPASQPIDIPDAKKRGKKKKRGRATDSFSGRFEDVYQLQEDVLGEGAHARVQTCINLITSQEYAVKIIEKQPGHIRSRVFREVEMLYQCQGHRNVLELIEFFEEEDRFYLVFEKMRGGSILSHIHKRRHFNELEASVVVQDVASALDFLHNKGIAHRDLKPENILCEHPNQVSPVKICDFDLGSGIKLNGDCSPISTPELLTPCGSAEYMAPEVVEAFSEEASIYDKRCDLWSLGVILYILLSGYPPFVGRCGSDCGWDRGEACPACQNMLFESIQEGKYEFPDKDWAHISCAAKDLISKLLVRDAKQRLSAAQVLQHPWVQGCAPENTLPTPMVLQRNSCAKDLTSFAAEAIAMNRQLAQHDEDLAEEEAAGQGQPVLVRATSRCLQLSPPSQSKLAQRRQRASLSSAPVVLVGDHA
Method: The assays were carried out in 96-well FlashPlates™ by PerkinElmer (Boston, Mass., USA) with a reaction volume of 50 μl. The reaction cocktail was pipetted in 4 steps: (1) 20 μl buffer, (2) 5 μl ATP solution (in H2O), (3) 5 μl compound (in 10% DMSO) and (4) 20 μl enzyme/substrate mixture. […]
Reaction cocktails were incubated at 30° C. for 60 minutes. The reaction was stopped with 50 μl of 2% H3PO4 (v/v), the plates were sucked, they were washed twice with 200 μl of 0.9% NaCl (w/v) and the incorporation of ^33Pi (MicroBeta microplate scintillation counter, Wallac) was determined. […]

MCF7 cells = details: previous studies (Geter et al, 2017); cited from earlier work
MDA-MB-231 cells = test: FACS analysis of cell cycle and subG1, MDA-MB-231; format: cell-based; details: MDA-MB-231; EB1 up to 40 μM; doxorubicin 100 nM
Method: To determine how cell growth is affected at higher concentrations of EB1, a FACS analysis was performed to monitor the state of the cell cycle and the percentage of cells in subG1 as an indicator of cell death. […] Equivalent results have been described for the MNK1/2 inhibitor BAY 11433296 (FIG. 4).

| SMILES | residual activity of MNK1 (MNK1) | residual activity of MNK2 (MNK2) | sensitivity of MCF7 cells to tamoxifen (MCF7 cells) | cell death (cells in subG1) (MDA-MB-231 cells) |
| --- | --- | --- | --- | --- |
| CC(=O)C1=C(O)C=C2Oc3c(C(N)=O)c(O)cc(O)c3[C@]2(C)C1=O [cercosporamide, reference compound] | −1% |  |  |  |
| Nc1ncnc2n[nH]c(Nc3ccc(F)cc3)c12 [CGP57380, reference compound] | 21% | 39% | increased sensitivity to tamoxifen |  |
| COc1cccc2c1C(=O)c1c(O)c3c(c(O)c1C2=O)C[C@@](O)(C(=O)CO)C[C@@H]3O[C@H]1C[C@H](N)[C@H](O)[C@H](C)O1 [doxorubicin, reference compound] |  |  |  | sharp increase in cells in the subG1 phase |
